Results: patent US20070166547A1, “Use of a layer consisting of hydrophobic linear, or two-dimensional polycyclic aromatics as a barrier layer or an encapsulation and electric components constructed with a layer of this type and comprising organic polymers” (priority 2003, published 2007)

How the values were obtained:
plasma hemostasis [1] = assay: Partial activated thromboplastin time (PATT) after intravenous administration; type: in vivo, rabbit; settings: for effect on the PATT (overall): doses 15.0, 30.0, 60.0 mg/kg
Protocol: (§1) The investigations were performed on 72 rabbits of the “Chinchilla” breed with a mass of 2.5±0.3 kg, who were administered which solutions of compounds 2, 15, 21, 37 in doses of 15, 30 and 60 mg/kg intravenously. The experiments included the thrombin-test (series No. 7300) and the coagulability-test (series No. 5000) purchased from the scientific-and-production association (SPA) “Renam”, thromboplastin (series No. 240600) and calcium chloride purchased from the SPA “MedioLab”
(§2) The static parameters of the blood and plasma coagulation (partial activated thromboplastin time, thrombin time, maximum coagulation activity (test for auto coagulation) were determined using the Behnk Electronic coagulometer (Germany). The operating principle of this instrument is based on the fact that the formed blood clot breaks the contacts of the pulse counter in the flask-pin circuit, said pin permanently oscillating in a vertical plane. The moment of formation of the clot is registered by stopping the stop watch hand.
(§3) The measurements were effected at a constant temperature of 37° C. maintained by a temperature control unit.
Compounds 2, 15, 21, 37 according to the invention at a concentration of 15, 30 and 60 mg/kg were introduced to the above experimental animals intravenously, and their blood samples were taken off 15, 30, 60 and 120 minutes after the administration.
The blood plasma samples deprived of thrombocytes obtained as described above in an amount of 0.1 ml were put in a coagulometer flask and heated for 1 minute at 37° C., then 0.1 ml of 0.277% solution of calcium chloride was added and the blood clotting time was registered. The coagulation time T in seconds of the control plasma and plasma obtained after intravenous administration after 15, 30, 60 and 120 minutes were compared.

[2] = test system: adenosine-sensitive receptors of erythrocytes; assay: Chemiluminescence study of bonding to erythrocytes and competition with adenosine; type: binding, mice of line BALB/c; settings: 37° C. vs 4° C.; 10^−7 to 10^−5 M
Protocol: The interaction of compounds 2, 15, 21, 37 according to the invention with adenosine-sensitive receptors of erythrocytes of female mice of line BALB/c of an age of 8-12 months was investigated.
The dependence of the chemiluminescence intensity of the compounds according to the invention in an alkaline solution of 0.1N NaOH was determined in the presence of hydrogen peroxide being an initiator of chemiluminescence. The chemiluminescence was studied using the <<LKB>> chemiluminometer.
The erythrocytes of peripheral blood of the mice at first were washed three times by a normal physiological solution with centrifuging and then diluted in the Henks solution without glucose by 10 volumes of distilled water immediately used in the experiment.
At the first stage of the experiments the washed erythrocytes were incubated at a temperature of 37° C. or at 4° C. with solutions of the compounds according to the invention at a concentration of 10^−7 to 10^−5 M for 5-30 minutes, then washed by a normal physiological solution with repeated centrifuging in the cold. The obtained suspension of erythrocytes with the bound compounds according to the invention was placed in 0.1N solution of NaOH with addition of hydrogen peroxide at a final concentration of 10^−7 M. The chemiluminescence intensity was measured. A suspension of erythrocytes without compounds according to the invention was used as a control medium.
At the second stage of the experiments the washed erythrocytes were incubated at a temperature of 37° C. with solutions of the compounds according to the invention at a concentration of 10^−11 to 10^−8M during
5-30 minutes, then washed twice with a normal physiological solution by centrifuging in the cold, the obtained suspension was mixed with an adenosine solution at a concentration of 10^−6 to 10^−4 and incubated for 15 minutes, then washed twice with a normal physiological solution with centrifuging in the cold. The obtained suspension of erythrocytes with the compounds according to the invention was placed in 0.1N solution of NaOH with addition of hydrogen peroxide in the final concentration of 10^−7 M. The chemiluminescence intensity was measured.

plasma hemostasis [3] = assay: Prothrombin time after intravenous administration; type: in vivo, rabbit; settings: for effect on the prothrombin time index (overall): doses of 15.0, 30.0, 60.0 mg/kg
Protocol: as §1, §2, §3
The method of its determination is based on estimation of the coagulation of citrate or oxalic blood plasma, when it is mixed with thromboplastin and a calcium chloride solution. Since under these conditions the time of formation of the clot depends on the content of II, VII, IX and X factors in the investigated plasma sample, now the test is called “thromboplastin time by Quick” or “activity thromboplastin complex”.
Compounds 2, 15, 21, 37 according to the invention at a concentration of 15, 30 and 60 mg/kg were administered to the above experimental animals intravenously and their blood was taken off after 15, 30, 60 and 120 minutes after the administration.
Citrate blood containing 1 part of citrate per 9 parts of native blood was centrifuged at 3000 rev/min for 10 minutes to obtain plasma deprived of thrombocytes.
Added into a test tube in a water bath were 0.1 ml of plasma and 0.1 ml of a thromboplastin solution. After 60 seconds, 0.1 ml of 0.277% solution of calcium chloride was added and the time of reaction T1 in seconds was registered.

thymus = assay: Morphine abstinence model: thymus condition; type: in vivo, rats; settings: compound alone
[4] = test system: synthase of nitrogen oxide (NOC); assay: Morphine abstinence model: activity of synthase of nitrogen oxide (radiometric, [3H]L-citrulline); type: in vivo, rats Wistar
[5] = compound alone 20.0 mg/kg intramuscularly
[6] = morphinized rats then compound 20.0 mg/kg intramuscularly

| SMILES | T, s after 15 minutes (PATT) (plasma hemostasis [1]; dose 15.0 mg/kg intravenously) [s] | T, s after 30 minutes (PATT) (plasma hemostasis [1]; dose 15.0 mg/kg intravenously) [s] | T, s after 60 minutes (PATT) (plasma hemostasis [1]; dose 15.0 mg/kg intravenously) [s] | T, s after 120 minutes (PATT) (plasma hemostasis [1]; dose 15.0 mg/kg intravenously) [s] | T, s after 15 minutes (PATT) (plasma hemostasis [1]; dose 30.0 mg/kg intravenously) [s] | T, s after 30 minutes (PATT) (plasma hemostasis [1]; dose 30.0 mg/kg intravenously) [s] | T, s after 60 minutes (PATT) (plasma hemostasis [1]; dose 30.0 mg/kg intravenously) [s] | T, s after 120 minutes (PATT) (plasma hemostasis [1]; dose 30.0 mg/kg intravenously) [s] | T, s after 15 minutes (PATT) (plasma hemostasis [1]; dose 60.0 mg/kg intravenously) [s] | T, s after 30 minutes (PATT) (plasma hemostasis [1]; dose 60.0 mg/kg intravenously) [s] | T, s after 60 minutes (PATT) (plasma hemostasis [1]; dose 60.0 mg/kg intravenously) [s] | T, s after 120 minutes (PATT) (plasma hemostasis [1]; dose 60.0 mg/kg intravenously) [s] | effect on the PATT (overall) (plasma hemostasis [1]) | bond with the erythrocytes: dependence on incubation temperature [2] | T, s After 120 minutes (prothrombin time) (plasma hemostasis [3]; dose 15.0 mg/kg intravenously) [s] | T, s after 15 minutes (prothrombin time) (plasma hemostasis [3]; dose 15.0 mg/kg intravenously) [s] | T, s after 30 minutes (prothrombin time) (plasma hemostasis [3]; dose 15.0 mg/kg intravenously) [s] | T, s after 60 minutes (prothrombin time) (plasma hemostasis [3]; dose 15.0 mg/kg intravenously) [s] | T, s After 120 minutes (prothrombin time) (plasma hemostasis [3]; dose 30.0 mg/kg intravenously) [s] | T, s after 15 minutes (prothrombin time) (plasma hemostasis [3]; dose 30.0 mg/kg intravenously) [s] | also measured |
| --- | --- | --- | --- | --- | --- | --- | --- | --- | --- | --- | --- | --- | --- | --- | --- | --- | --- | --- | --- | --- | --- |
| Nc1ccnc2c(=O)n([C@@H]3O[C@H](CO)[C@@H](O)[C@H]3O)[nH]c(=O)c12 [Compound 2, 4-amino-7-(β-D-ribofuranosile)pyrido[2,3-d]-6H-pyridazine-5,8-dione] | 37.0 ± 0.1 | 37.0 ± 0.2 | 36.9 ± 0.1 | 37.0 ± 0.3 | 32.7 ± 0.5 | 32.0 ± 0.1 | 32.2 ± 0.1 | 32.1 ± 0.2 | 32.3 ± 0.2 | 32.4 ± 0.1 | 32.3 ± 0.1 | 32.4 ± 0.1 | do not affect the PATT | does not depend on the temperature | 11.7 ± 0.1 | 11.7 ± 0.2 | 11.5 ± 0.2 | 11.4 ± 0.2 | 11.2 ± 0.2 | 11.1 ± 0.2 | T, s after 30 minutes (prothrombin time) (plasma hemostasis [3]; dose 30.0 mg/kg intravenously): 11.0 ± 0.1 s; T, s after 60 minutes (prothrombin time) (plasma hemostasis [3]; dose 30.0 mg/kg intravenously): 11.3 ± 0.1 s; T, s After 120 minutes (prothrombin time) (plasma hemostasis [3]; dose 60.0 mg/kg intravenously): 11.9 ± 0.1 s; T, s after 15 minutes (prothrombin time) (plasma hemostasis [3]; dose 60.0 mg/kg intravenously): 12.0 ± 0.1 s; T, s after 30 minutes (prothrombin time) (plasma hemostasis [3]; dose 60.0 mg/kg intravenously): 11.9 ± 0.2 s; T, s after 60 minutes (prothrombin time) (plasma hemostasis [3]; dose 60.0 mg/kg intravenously): 12.1 ± 0.2 s; effect on the prothrombin time index (overall) (plasma hemostasis [3]): have no effect on the prothrombin time index |
| Nc1cccc2c(=O)[nH][nH]c(=O)c12.[Na] [Compound 15, sodium salt of 5-amino-benzo[d]-3H-pyridazine-1,4-dione] | 37.0 ± 0.1 | 37.0 ± 0.2 | 36.9 ± 0.1 | 37.0 ± 0.3 | 32.9 ± 0.8 | 32.1 ± 0.1 | 32.0 ± 0.2 | 32.0 ± 0.1 | 32.2 ± 0.1 | 32.2 ± 0.1 | 32.1 ± 0.2 | 32.2 ± 0.1 | do not affect the PATT | does not depend on the temperature | 11.5 ± 0.2 | 11.5 ± 0.2 | 11.7 ± 0.2 | 11.2 ± 0.2 | 11.3 ± 0.2 | 11.0 ± 0.2 | Nitrites, thymus Supernatant, Administration of compounds (thymus): 0.407 ± 0.02 nmol/mg of protein; Thymus mass, Administration of compounds (thymus): 298 ± 25 mg; Activity of NOC, Hypothalamus, Control + Compound [4, 5]: 5.45 ± 0.24 pmol/min/mg of protein; Activity of NOC, Mesencephalon, Control + Compound [4, 5]: 2.60 ± 0.29 pmol/min/mg of protein; Activity of NOC, Hypothalamus, Control + Morphine + compound [4, 6]: 5.26 ± 0.28 pmol/min/mg of protein; Activity of NOC, Mesencephalon, Control + Morphine + compound [4, 6]: 1.83 ± 0.23 pmol/min/mg of protein; T, s after 30 minutes (prothrombin time) (plasma hemostasis [3]; dose 30.0 mg/kg intravenously): 11.2 ± 0.2 s; T, s after 60 minutes (prothrombin time) (plasma hemostasis [3]; dose 30.0 mg/kg intravenously): 11.4 ± 0.2 s; T, s After 120 minutes (prothrombin time) (plasma hemostasis [3]; dose 60.0 mg/kg intravenously): 12.0 ± 0.1 s; T, s after 15 minutes (prothrombin time) (plasma hemostasis [3]; dose 60.0 mg/kg intravenously): 12.0 ± 0.1 s; T, s after 30 minutes (prothrombin time) (plasma hemostasis [3]; dose 60.0 mg/kg intravenously): 12.0 ± 0.1 s; T, s after 60 minutes (prothrombin time) (plasma hemostasis [3]; dose 60.0 mg/kg intravenously): 12.0 ± 0.2 s; effect on the prothrombin time index (overall) (plasma hemostasis [3]): have no effect on the prothrombin time index |
